# Experimental data: US20260224758A1, “ALPHA-SYNUCLEIN BINDERS AND METHODS OF USE” (Merck Sharp & Dohme LLC, priority 2023, published 2026)
# Where two headings read alike, the source gives them in different places.
# How the values were obtained:
# [1] = [^11C]-2 PET imaging in rhesus monkey; format: in vivo; details: IV, averaged over 30-90 minutes post injection
# Procedure: A fasted rhesus monkey (7-11 kg) is anesthetized with ketamine I.M. (15 mpk) and the monkey is placed in the PET camera bed. An I.V, catheter is inserted into the right saphenous vein. For arterial sampling, the right femoral area is aseptically prepared and an arterial catheter is placed and fixed with sutures.
# Subsequent anesthesia is maintained with Propofol. Induction dose is 5 mg/kg I.V., followed by an infusion at 0.4-0.6 mg/kg/min for the duration of the scanning procedure. The animal is intubated and positioned inside the camera gantry supine, head first. Animal is maintained on ventilated medical grade air:oxygen gas mixture at approximately 23 respirations per minute for the duration of the study. Ventilation I:E ratio, volume and rate of respiration is adjusted to maintain CO2 levels about 40 mmHg and SpO2 levels 95 to 100%. A temperature probe, pulse oximeter, non-invasive blood pressure cuff, and end tidal CO2 monitor are connected. […]
# Whole blood samples are collected via arterial catheter into Heparin tubes for determination of radioactivity in whole blood and plasma. Samples are centrifuged and 20 μl whole blood and plasma are counted 20, 40, 80, 100, 120, and 150 seconds post PET ligand injection. Samples of blood (0.8 ml) are taken for metabolite correction and determination of radioactivity in plasma and whole blood at 3, 5, 15, 30, 60, and 90 minutes. […]
# [2] = target: T1, alpha-synucleinopathy of PD brain (Homo sapiens, UniProt P37840); test: In vitro autoradiography of [^3H]-2 on PD brain sections with IHC comparison; format: binding; details: PD brain amygdala section, 3 nM radioligand
# T1 construct: They are post-mortem tissue from donors with clinical diagnosis of PD or non-PD; tissue Banner Sun Health Institute; Sydney Brain Bank; Analytic Biological Services Inc; Discovery Life Science; host or cells: human PD cerebral cortex homogenates (A4); human PD amygdala cryosections (A5)
# Procedure: (§1) To assess presence of alpha synucleinopathy (Lewy body, LB and Lewy neurites, LN) in the tested human brain samples, the adjacent human PD brain slices were used for Autoradiography (ARG) and Immunihistochemistry (1HC) studies. ARG was done using radio-labelled compounds which bind to LB and LN of PD brain sections. 1HC was performed with antibodies for LB & LN (LB509), Aβ (6E10) and p-tau (AT8). Tissue homogenate binding was performed using human PD brain homogenates of cerebral cortex. Human brains from donor without neurological disorder were used as control in the same study.
# The frozen human brain samples of Parkinson's disease (PD) were provided by Banner Sun Health Institute (USA) and Sydney Brain Bank (Australia) through collaboration with Michael J Fox Foundation (MJFF). Additional PD and non-PD brain samples were purchased from vendors (Analytic Biological Services Inc., ABS, and Discovery Life Science, DLS). […] Total binding of radioligand in a brain slice was defined in the absence of competitor, and non-displaceable binding (NDB) was determined in the presence of competitor (1.0 μM unlabeled selfblock). […] After three weeks exposure, the plates were scanned in Amersham Typhoon Imager, and the scanned images were analyzed using MCID 7.1 software. [^3H]-microscales (Amersham Biosciences, GE), were used for quantification of radioligand binding density. […]
# [3] = target: human Parkinson's Disease tissue homogenates (Homo sapiens, UniProt P37840); test: Hot saturation binding of [^3H]-2 in human PD cerebral cortex homogenates; details: PD Cortex (n = 5)
# Procedure: as §1
# The frozen human brain samples of Parkinson's disease (PD) were provided by Banner Sun Health Institute (USA) and Sydney Brain Bank (Australia) through collaboration with Michael J Fox Foundation (MJFF). […]
# [^3H]-2 was synthesized by Radio Compound Labelling Synthesis Group at Merck. […] Total binding was defined in the absence of competing compound, and non-displaceable binding was determined in the presence of 1 μM unlabeled self-block. […]
# Incubation was carried out at 37° C. for 120 minutes, and then the assay samples were filtered onto GF/C filters using Skatron 12 well harvester, washing on setting 5-5-5 (~3×2 ml) ice cold buffer (Tris, pH 7.5). […] Add liquid scintillation fluid (2 mL Ultima Gold) into each vial, allow to soak into filters for 4 hours and counted in on Perkin Elmer Tri-Carb 2900TR for 1 minute. […]
# [4] = target: T2, triton-extracted alpha-synuclein from PD Tissue (Homo sapiens, UniProt P37840); test: Alpha-synuclein tissue homogenate binding assay (Assay 1), displacement of [^3H]-1000; details: for Selectivity ratio (Assay 2/Assay 1): Aβ Tissue Ki / α-synuclein Tissue Ki; for Ki: read-out: α-synuclein Tissue Ki (Assay 1)
# T2 construct: tissue Analytic Biological Services Inc; host or cells: human PD temporal cortex grey matter, Triton X-100 insoluble pellet
# [5] = target: aggregated beta amyloid in AD tissue (Homo sapiens, UniProt P05067); test: Competitive radioligand binding to pathological aggregated beta amyloid in AD tissue (Assay 2), displacement of [^3H]-105; details: Aβ-rich AD frontal cortex homogenate, [^3H]-105, Kd 11.0 nM
# [6] = insoluble fraction of PD brain homogenate, [^3H]-1000 3.0 nM, Kd 0.90 nM
# aggregated beta amyloid in AD tissue, sequence (P05067 672-711 limits assumed): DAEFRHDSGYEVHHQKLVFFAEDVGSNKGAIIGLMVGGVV
distribution in monkey brain (PET image) [1],Selectivity ratio (Assay 2/Assay 1) [4],"Ki [4, 6] [nM]",Ki [5] [nM],Ki [4] [nM],Structure (SMILES),autoradiographic binding versus LB509 and AT8 immunoreactivity [2],Bmax [3] [nM]
suitable distribution,–,–,–,–,[11CH3]OC[C@H]1CN(c2ncc(/C=C/c3ccc(-n4ccnc4)nc3)cn2)CCN1c1ncccn1 [[^11C]-2],–,–
–,–,–,–,–,"[3H]C([3H])([3H])OC[C@H]1CN(c2ncc(C=Cc3ccc(-n4ccnc4)nc3)cn2)CCN1c1ncccn1 [[^3H]-2, [^3H]-(R,E)-5-(2-(6-(1H-imidazol-1-yl)pyridin-3-yl)vinyl)-2-(3-(methoxymethyl)-4-(pyrimidin-2-yl)piperazin-1-yl)pyrimidine]",specific binding,17.0 ± 5.2
–,469,2.56,≥ 1200,–,"COC[C@H]1CN(c2ncc(C#Cc3ccc(N4CC(F)C4)nc3)cn2)CCN1c1ncccn1 [Example 68, (R)-5-((6-(3-fluoroazetidin-1-yl)pyridin-3-yl)ethynyl)-2-(3-(methoxymethyl)-4-(pyrimidin-2-yl)piperazin-1-yl)pyrimidine]",–,–
–,436,–,480,1.1,"COC[C@H]1CN(c2ncc(/C=C/c3ccc(-n4ccnc4)nc3)cn2)CCN1c1ncc(CO)cn1 [Example 7, (R,E)-(2-(4-(5-(2-(6-(1H-imidazol-1-yl)pyridin-3-yl)vinyl)pyrimidin-2-yl)-2-(methoxymethyl)piperazin-1-yl)pyrimidin-5-yl)methanol]",–,–
–,1093,1.1,≥ 1200,–,"CNCC1CN(c2cc(F)ncn2)CCN1c1ncc(C#Cc2ccc(-c3cnco3)nc2)cn1 (stereo not drawn) [Example 65, 1-(4-(6-fluoropyrimidin-4-yl)-1-(5-((6-(oxazol-5-yl)pyridin-3-yl)ethynyl)pyrimidin-2-yl)piperazin-2-yl)-N-methylmethanamine]",–,–
–,12000,0.94,≥ 12000,–,"FCCOC[C@H]1CN(c2ncc(/C=C/c3ccc(-c4cnco4)nc3)cn2)CCN1c1ncccn1 [Example 36, (R,E)-5-(5-(2-(2-(3-((2-fluoroethoxy)methyl)-4-(pyrimidin-2-yl)piperazin-1-yl)pyrimidin-5-yl)vinyl)pyridin-2-yl)oxazole]",–,–
–,1538,0.78,≥ 1200,–,"FCCOC[C@H]1CN(c2ncc(/C=C/c3ccc(-c4cnco4)nc3)cn2)CCN1c1ccncn1 [Example 42, (R,E)-5-(5-(2-(2-(3-((2-fluoroethoxy)methyl)-4-(pyrimidin-4-yl)piperazin-1-yl)pyrimidin-5-yl)vinyl)pyridin-2-yl)oxazole]",–,–
